# From patent publication US20240115654A1, “INTRAVENOUS ADMINISTRATION OF ENGINEERED ANTIMICROBIAL AMPHIPHILIC PEPTIDES” (priority 2021, published 2024)
# Read-outs that look alike come from different tables or passages of the source. Peptide text beside a SMILES is read from it.
# What was measured:
# [1] = mouse, in vivo, iv, 3 mg/kg
# From the text: (§1) Male CD-1 mice will be received from an approved vendor and allowed to acclimate for a minimum of two days. Fasting will be not required.
# (§2) All dosing syringes will be weighed prior to and following dosing. IV doses will be administered as a slow bolus (over ˜30 seconds) via direct venipuncture of a tail vein. All animals will be observed at dosing and each scheduled collection. All abnormalities will be recorded.
# (§3) Terminal blood samples will be collected via cardiac puncture following inhalation anesthesia.
# (§4) Sample Processing and Storage: Blood samples will be collected into K2EDTA tubes and stored on wet ice. Whole blood will be processed to plasma by centrifugation (3500 rpm at 5° C.) within 30 minutes of collection. Plasma samples will be split into 2 equal aliquots and each transferred into 96 well plates (matrix tubes) and stored at −80° C. until analysis. Administered doses will be determined gravimetrically.
# (§5) Prior to extraction, a known concentration of a mass-adjusted internal standard (IS) will be added to assess recovery and allow for quantitation. Purified samples will be further subjected to high-performance liquid chromatography (HPLC) using C18 300 or 130 angstrom columns prior to MS/MS analysis. Multiple charge states will be observed by MS, so MS/MS will be employed to enable multiple reaction monitoring (MRM) analyses to determine the most MRM transitions with the highest signal-to-noise gain. Compound plasma concentrations will be determined by comparing to and compensating with co-purified IS peak intensity and validated calibrated standard curves.
# (§6) Pharmacokinetic parameters will be calculated using non-compartmental methods as implemented in the Phoenix® WinNonlin® ver. 6.3 comprehensive TK/PK analysis software program (Pharsight Corporation; Mountain View, CA) using an IV infusion model. Pharmacokinetic analysis will be conducted using a 30-minute intravenous infusion time. Therefore, 30 minutes will be added to each sample time point postdose to obtain nominal time for TK analysis. Nominal times and dosage levels will be used for all calculations. Values below the lower limit of quantitation (BLQ) will be assigned a value of zero for the pharmacokinetic calculations. Microsoft® Excel® 2013 will be used for receipt of bioanalytical data, minor formatting, including setting BLQ values to “0”, transfer into WinNonlin® for PK analysis, and calculation of the mean when an approximated value will be excluded. All plasma concentration data from all animals will be included in the analysis. Graphical presentations will be performed using Microsoft® Excel® 2013.
# [2] = mice
# From the text: as §1, §2, §3, §4, §5, §6
# clinical = settings: human, plasma, iv, Plasma Concentration by Nominal Time from Start of Infusion; for level at 0.5 h: 0.50 h
# Method: Administration was a single 1-hour infusion.
# Subjects were enrolled in sequential cohorts of peptide ascending dose levels and randomly assigned to receive a single IV administration of either peptide or placebo over 1 to 2 hours. […] In addition, the infusion volume was adjusted for Cohort 4 to maintain drug concentrations in line with Cohort 2
# Blood samples for PK assessment were collected at pre-dose, at the midpoint of infusion, within 1 minute after the end-of-infusion and at 0.5, 1, 2, 4, 6, 8, 12, 20, 24, 36 and 48 hours after the end-of-infusion.
# The pharmaceutical composition was stored at 2° C. to 8° C. for up to 14 days and then 15° C. to 25° C. for up to 48 hours for dosing.
# Subjects were enrolled in sequential cohorts of peptide ascending dose levels and randomly assigned to receive a single IV administration of either peptide or placebo over 1 to 2 hours.
# [3] = 0.05 mg/kg, Cohort 1, 0.05 mg/kg IV 1-hr infusion, individual subject
# [4] = 0.05 mg/kg, Cohort 1, 0.05 mg/kg IV 1 hr infusion, individual subjects
# [5] = 0.05 mg/kg, Mean, Cohort 1, 0.05 mg/kg IV 1-hr infusion, cohort mean
# [6] = 0.05 mg/kg, Mean, Cohort 1, 0.05 mg/kg IV 1 hr infusion, cohort mean N 6
# [7] = 0.5 mg/kg, Mean, Cohort 4, 0.5 mg/kg IV 2-hr infusion, cohort mean
# [8] = 0.5 mg/kg, Mean, Cohort 4, 0.5 mg/kg IV, infusion 2 hours, cohort mean N 6
# [9] = 1 mg/kg, Mean, Cohort 5, 1 mg/kg IV 4-hr infusion, cohort mean
smiles,measurement,setting,value
CC(C)[C@H](NC(=O)[C@H](Cc1c[nH]c2ccccc12)NC(=O)[C@H](CCCNC(=N)N)NC(=O)[C@H](CCCNC(=N)N)NC(=O)[C@@H](NC(=O)[C@@H](NC(=O)[C@H](CCCNC(=N)N)NC(=O)[C@@H](NC(=O)[C@@H](NC(=O)[C@H](CCCNC(=N)N)NC(=O)[C@H](CCCNC(=N)N)NC(=O)[C@H](Cc1c[nH]c2ccccc12)NC(=O)[C@@H](NC(=O)[C@H](CCCNC(=N)N)NC(=O)[C@H](CCCNC(=N)N)NC(=O)[C@@H](NC(=O)[C@H](CCCNC(=N)N)NC(=O)[C@H](CCCNC(=N)N)NC(=O)[C@@H](NC(=O)[C@H](Cc1c[nH]c2ccccc12)NC(=O)[C@H](CCCNC(=N)N)NC(=O)[C@@H](N)CCCNC(=N)N)C(C)C)C(C)C)C(C)C)C(C)C)C(C)C)C(C)C)C(C)C)C(=O)N[C@@H](CCCNC(=N)N)C(=O)N[C@@H](CCCNC(=N)N)C(N)=O [SEQ ID NO: 1] (H-RRWVRRVRRVWRRVVRVVRRWVRR-NH2),Tmax,[1],2 min
same,AUCinf,[2]; 3 mg/kg IV,<3500 ng·h/mL
same,CL,[2]; 3 mg/kg IV,~5 mL/min/kg
same,Extrapolated,[2]; 3 mg/kg IV,~0.5%
same,MRT last,[2]; 3 mg/kg IV,~30 min
same,T1/2,[2]; 3 mg/kg IV,~480 min
same,Vss,[2]; 3 mg/kg IV,~0.2 L/kg
same,Vz,[2]; 3 mg/kg IV,~3 L/kg
same,AUCinf_D,[2]; 15 mg/kg IV,3589 kg·ng·h/mL/ng
same,Extrapolated,[2]; 15 mg/kg IV,0.49%
same,level at 0 h,clinical; [3],6.03 ng/mL
same,level at 0.5 h,clinical; [3],166 ng/mL
same,level at 21 h,clinical; [3],12.6 ng/mL
same,level at 37 h,clinical; [3],6.59 ng/mL
same,level at 0 h,clinical; [4],6.03 ng/mL
same,level at 0.5 h,clinical; [4],166 ng/mL
same,level at 21 h,clinical; [4],12.6 ng/mL
same,level at 37 h,clinical; [4],6.59 ng/mL
same,level at 0 h,clinical; [5],1.01 ng/mL
same,level at 0.5 h,clinical; [5],189 ng/mL
same,level at 1 h,clinical; [5],256 ng/mL
same,level at 2 h,clinical; [5],108 ng/mL
same,level at 3 h,clinical; [5],96.4 ng/mL
same,level at 5 h,clinical; [5],79.5 ng/mL
same,level at 7 h,clinical; [5],62.5 ng/mL
same,level at 9 h,clinical; [5],56.9 ng/mL
same,level at 13 h,clinical; [5],31.5 ng/mL
same,level at 21 h,clinical; [5],15.4 ng/mL
same,level at 25 h,clinical; [5],14.8 ng/mL
same,level at 37 h,clinical; [5],1.1 ng/mL
same,level at […],clinical; [5],134 ng/mL
same,level at 0 h,clinical; [6],1.01 ng/mL
same,level at 0.5 h,clinical; [6],189 ng/mL
same,level at 1 h,clinical; [6],256 ng/mL
same,level at 2 h,clinical; [6],108 ng/mL
same,level at 3 h,clinical; [6],96.4 ng/mL
same,level at 5 h,clinical; [6],79.5 ng/mL
same,level at 7 h,clinical; [6],62.5 ng/mL
same,level at 9 h,clinical; [6],56.9 ng/mL
same,level at 13 h,clinical; [6],31.5 ng/mL
same,level at 21 h,clinical; [6],15.4 ng/mL
same,level at 25 h,clinical; [6],14.8 ng/mL
same,level at 37 h,clinical; [6],1.1 ng/mL
same,level at […],clinical; [6],134 ng/mL
same,level at 50 h,"clinical; 0.5 mg/kg, Cohort 4, 0.5 mg/kg IV 2-hr infusion, individual subject",45.9 ng/mL
same,level at 1 h,clinical; [7],1210 ng/mL
same,level at 2 h,clinical; [7],1830 ng/mL
same,level at 3 h,clinical; [7],616 ng/mL
same,level at 4 h,clinical; [7],451 ng/mL
same,level at 6 h,clinical; [7],330 ng/mL
same,level at 8 h,clinical; [7],249 ng/mL
same,level at 10 h,clinical; [7],219 ng/mL
same,level at 14 h,clinical; [7],134 ng/mL
same,level at 22 h,clinical; [7],76.3 ng/mL
same,level at 26 h,clinical; [7],72.5 ng/mL
same,level at 38 h,clinical; [7],41.2 ng/mL
same,level at 50 h,clinical; [7],25.7 ng/mL
same,level at […],clinical; [7],877 ng/mL
same,level at 1 h,clinical; [8],1210 ng/mL
same,level at 2 h,clinical; [8],1830 ng/mL
same,level at 3 h,clinical; [8],616 ng/mL
same,level at 4 h,clinical; [8],451 ng/mL
same,level at 6 h,clinical; [8],330 ng/mL
same,level at 8 h,clinical; [8],249 ng/mL
same,level at 10 h,clinical; [8],219 ng/mL
same,level at 14 h,clinical; [8],134 ng/mL
same,level at 22 h,clinical; [8],76.3 ng/mL
same,level at 26 h,clinical; [8],72.5 ng/mL
same,level at 38 h,clinical; [8],41.2 ng/mL
same,level at 50 h,clinical; [8],25.7 ng/mL
same,level at […],clinical; [8],877 ng/mL
same,level at 2 h,clinical; [9],2040 ng/mL
same,level at 4 h,clinical; [9],2650 ng/mL
same,level at 5 h,clinical; [9],1350 ng/mL
same,level at 6 h,clinical; [9],1130 ng/mL
same,level at 8 h,clinical; [9],803 ng/mL
same,level at 10 h,clinical; [9],604 ng/mL
same,level at 12 h,"clinical; 1 mg/kg, Mean, Cohort 5, 1 mg/kg IV 4-hr infusion, 12 h, cohort mean",487 ng/mL
same,level at 16 h,"clinical; 1 mg/kg, Mean, Cohort 5, 1 mg/kg IV 4-hr infusion, 16 h, cohort mean",287 ng/mL
same,level at 24 h,"clinical; 1 mg/kg, Mean, Cohort 5, 1 mg/kg IV 4-hr infusion, 24 h, cohort mean",167 ng/mL
same,level at 28 h,"clinical; 1 mg/kg, Mean, Cohort 5, 1 mg/kg IV 4-hr infusion, 28 h, cohort mean",180 ng/mL
same,level at 40 h,"clinical; 1 mg/kg, Mean, Cohort 5, 1 mg/kg IV 4-hr infusion, 40 h, cohort mean",98.7 ng/mL
same,level at 52 h,"clinical; 1 mg/kg, Mean, Cohort 5, 1 mg/kg IV 4-hr infusion, 52 h, cohort mean",99.6 ng/mL
same,level at […],clinical; [9],1810 ng/mL
